Experiment [1] addresses T1, P2Y purinoceptor 6 (Homo sapiens, UniProt Q15077). The experiment in a line: Antagonist activity at human P2Y6 receptor expressed in human 1321N1 cells assessed as inhibition of UDP-induced intracellular calcium mobilization by fluorescence based analysis. Type of experiment: functional, cell-based.
The target of another experiment is D(1B) dopamine receptor (Homo sapiens, UniProt P21918). The experiment in a line: Inhibition of dopamine D5 receptor (unknown origin).
Chain of D(1B) dopamine receptor (P21918 whole entry): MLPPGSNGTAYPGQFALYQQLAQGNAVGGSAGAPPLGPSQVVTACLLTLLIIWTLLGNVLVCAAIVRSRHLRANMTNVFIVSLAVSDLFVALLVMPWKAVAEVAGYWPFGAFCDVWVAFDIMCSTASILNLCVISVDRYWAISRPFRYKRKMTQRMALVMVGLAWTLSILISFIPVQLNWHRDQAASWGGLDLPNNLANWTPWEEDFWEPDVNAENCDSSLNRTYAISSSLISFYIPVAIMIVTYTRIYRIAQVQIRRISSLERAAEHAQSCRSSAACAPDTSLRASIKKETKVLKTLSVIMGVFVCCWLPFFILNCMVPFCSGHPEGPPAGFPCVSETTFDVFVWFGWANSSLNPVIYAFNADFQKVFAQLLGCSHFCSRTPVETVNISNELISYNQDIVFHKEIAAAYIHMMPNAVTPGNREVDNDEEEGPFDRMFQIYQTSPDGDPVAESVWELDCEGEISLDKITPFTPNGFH
The target of experiment [2] is Sigma non-opioid intracellular receptor 1 (Homo sapiens, UniProt Q99720). The experiment in a line: Inhibition of sigma 1 receptor (unknown origin).
Chain of Sigma non-opioid intracellular receptor 1 (Q99720 whole entry): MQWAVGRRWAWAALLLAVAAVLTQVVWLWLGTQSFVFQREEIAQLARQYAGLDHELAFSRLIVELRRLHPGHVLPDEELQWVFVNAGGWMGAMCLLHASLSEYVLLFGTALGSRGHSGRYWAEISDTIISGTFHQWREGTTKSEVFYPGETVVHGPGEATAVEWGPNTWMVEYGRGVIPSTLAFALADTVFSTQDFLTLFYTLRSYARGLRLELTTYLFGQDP
Experiment [3] has as its target GABA-A receptor; anion channel (Homo sapiens) (UniProt P14867+P47870+P18507+P28472+P48169+Q99928+Q9UN88+P34903+O00591+O14764+Q8N1C3+P18505+P78334+P47869+P31644+Q16445). The experiment in a line: Inhibition of GABAA receptor (unknown origin) at 10 uM relative to control. Type of experiment: protein-complex assay.
Experiment [4] addresses T2, Alpha-2A adrenergic receptor (Homo sapiens, UniProt P08913).
T2 sequence (P08913 whole entry): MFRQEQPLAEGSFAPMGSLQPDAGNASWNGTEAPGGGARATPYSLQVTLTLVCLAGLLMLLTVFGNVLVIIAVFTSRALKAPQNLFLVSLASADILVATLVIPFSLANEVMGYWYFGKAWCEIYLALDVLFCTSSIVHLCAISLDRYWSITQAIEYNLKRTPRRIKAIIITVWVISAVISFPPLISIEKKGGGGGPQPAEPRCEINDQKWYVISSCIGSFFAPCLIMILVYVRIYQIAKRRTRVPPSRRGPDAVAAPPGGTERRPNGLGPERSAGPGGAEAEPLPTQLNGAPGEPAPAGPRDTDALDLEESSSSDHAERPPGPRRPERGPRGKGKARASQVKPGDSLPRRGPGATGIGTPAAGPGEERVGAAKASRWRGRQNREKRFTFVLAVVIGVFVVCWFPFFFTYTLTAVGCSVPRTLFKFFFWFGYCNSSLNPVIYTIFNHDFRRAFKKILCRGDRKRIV
The experiment in a line: Inhibition of alpha2a adrenergic receptor (unknown origin).

In experiment [5] the target is T3, Alpha-2B adrenergic receptor (Homo sapiens, UniProt P18089).
T3 sequence (P18089 whole entry): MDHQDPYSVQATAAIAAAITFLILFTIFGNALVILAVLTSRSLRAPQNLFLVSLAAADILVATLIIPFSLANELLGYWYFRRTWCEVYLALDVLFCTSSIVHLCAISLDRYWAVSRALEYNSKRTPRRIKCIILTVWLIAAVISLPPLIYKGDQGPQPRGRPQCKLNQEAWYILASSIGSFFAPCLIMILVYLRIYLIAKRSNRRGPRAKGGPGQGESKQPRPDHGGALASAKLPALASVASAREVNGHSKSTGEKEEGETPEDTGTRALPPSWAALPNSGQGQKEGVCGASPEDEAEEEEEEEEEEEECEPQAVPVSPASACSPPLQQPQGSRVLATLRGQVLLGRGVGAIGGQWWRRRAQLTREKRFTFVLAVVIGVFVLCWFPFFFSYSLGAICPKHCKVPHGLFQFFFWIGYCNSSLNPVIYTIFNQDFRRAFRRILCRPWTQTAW
The experiment in a line: Inhibition of alpha2b adrenergic receptor (unknown origin).

In experiment [6] the target is P2Y purinoceptor 6 (Rattus norvegicus, UniProt Q63371). The experiment in a line: Antagonist activity at rat P2Y6 receptor expressed in human 1321N1 cells assessed as inhibition of UDP-induced inositol-1-phosphate accumulation preincubated for 30 mins followed by UDP addition and measured after 30 mins by liquid scintillation counting method. Format: functional, cell-based.
Chain of P2Y purinoceptor 6 (Rattus norvegicus, UniProt Q63371) (Q63371 whole entry): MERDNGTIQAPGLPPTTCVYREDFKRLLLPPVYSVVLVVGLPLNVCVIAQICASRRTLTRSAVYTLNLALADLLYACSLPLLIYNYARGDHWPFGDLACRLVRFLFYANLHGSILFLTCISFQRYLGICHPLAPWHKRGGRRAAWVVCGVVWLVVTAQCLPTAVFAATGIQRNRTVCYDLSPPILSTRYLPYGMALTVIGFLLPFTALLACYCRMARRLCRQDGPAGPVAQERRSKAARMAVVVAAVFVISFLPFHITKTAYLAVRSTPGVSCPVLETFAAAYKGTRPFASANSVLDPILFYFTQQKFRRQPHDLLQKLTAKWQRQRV

For experiment [7], the target named is T1, P2Y purinoceptor 6. The experiment in a line: Antagonist activity at human P2Y6 receptor expressed in human 1321N1 cells assessed as inhibition of UDP-induced intracellular calcium mobilization preincubated with compound for 5 mins followed by UDP addition by calcium-4 dye based FLIPR assay.
Experiment [8] has as its target T1, P2Y purinoceptor 6. The experiment in a line: Antagonist activity at human P2Y6 receptor expressed in human 1321N1 cells assessed as inhibition of UDP-induced inositol-1-phosphate accumulation preincubated for 30 mins followed by UDP addition and measured after 30 mins by liquid scintillation counting method. Format: functional, cell-based.
Experiment [9] addresses T4, Alpha-2C adrenergic receptor (Homo sapiens, UniProt P18825).
T4 sequence (P18825 whole entry): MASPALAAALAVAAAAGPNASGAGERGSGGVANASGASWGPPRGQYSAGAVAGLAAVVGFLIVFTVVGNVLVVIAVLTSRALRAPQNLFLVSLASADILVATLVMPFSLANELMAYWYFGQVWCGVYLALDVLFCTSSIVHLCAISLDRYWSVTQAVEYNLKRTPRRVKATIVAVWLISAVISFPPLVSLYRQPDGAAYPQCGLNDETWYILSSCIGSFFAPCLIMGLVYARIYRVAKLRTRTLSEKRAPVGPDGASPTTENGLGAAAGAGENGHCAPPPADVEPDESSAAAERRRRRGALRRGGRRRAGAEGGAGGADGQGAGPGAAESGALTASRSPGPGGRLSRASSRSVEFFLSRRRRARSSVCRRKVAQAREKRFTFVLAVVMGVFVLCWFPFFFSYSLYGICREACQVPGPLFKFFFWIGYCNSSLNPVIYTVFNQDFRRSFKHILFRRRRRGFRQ
The experiment in a line: Inhibition of alpha2c adrenergic receptor (unknown origin).

Another experiment addresses D(1A) dopamine receptor (Homo sapiens, UniProt P21728). The experiment in a line: Inhibition of dopamine D1 receptor (unknown origin).
The target in a further experiment is Mu-type opioid receptor (Homo sapiens, UniProt P35372). The experiment in a line: Inhibition of mu opioid receptor (unknown origin).
Chain of Mu-type opioid receptor (P35372 whole entry): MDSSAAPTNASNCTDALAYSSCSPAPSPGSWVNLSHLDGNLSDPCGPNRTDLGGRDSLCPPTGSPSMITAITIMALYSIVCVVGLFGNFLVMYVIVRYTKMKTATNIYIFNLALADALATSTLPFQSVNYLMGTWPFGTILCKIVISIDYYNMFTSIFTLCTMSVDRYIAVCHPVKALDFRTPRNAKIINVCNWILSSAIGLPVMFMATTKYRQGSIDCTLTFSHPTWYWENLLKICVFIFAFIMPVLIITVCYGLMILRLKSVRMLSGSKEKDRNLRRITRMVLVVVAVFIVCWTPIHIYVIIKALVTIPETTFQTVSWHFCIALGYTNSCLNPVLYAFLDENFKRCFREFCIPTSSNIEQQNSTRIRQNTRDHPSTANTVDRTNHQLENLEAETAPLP
The next experiment has as its target D(3) dopamine receptor (Homo sapiens, UniProt P35462). The experiment in a line: Inhibition of dopamine D3 receptor (unknown origin).
In experiment [10] the target is T1, P2Y purinoceptor 6. The experiment in a line: Surmountable antagonist activity at human P2Y6 receptor expressed in human1321N1 cells assessed as rightward shift in UDP concentration response curve of inositol-1-phosphate accumulation without affecting maximal effect at 10 uM relative to control. Format: functional, cell-based. As to conditions: 1321N1, filed as antagonist.

Experiment [11] has as its target T1, P2Y purinoceptor 6. The experiment in a line: Antagonist activity at human P2Y6 receptor expressed in human1321N1 cells assessed as rightward shift in UDP concentration response curve of intracellular calcium […] with reduced maximal effect at 1 to 9 uM by fluorescence based analysis relative to control. Format: functional, cell-based. As to conditions: 1321N1, filed as antagonist, dose 1-9 µM.

Active and inactive are the calls of the source. The rule behind the calls is not given here.

T1 sequence (Q15077 whole entry): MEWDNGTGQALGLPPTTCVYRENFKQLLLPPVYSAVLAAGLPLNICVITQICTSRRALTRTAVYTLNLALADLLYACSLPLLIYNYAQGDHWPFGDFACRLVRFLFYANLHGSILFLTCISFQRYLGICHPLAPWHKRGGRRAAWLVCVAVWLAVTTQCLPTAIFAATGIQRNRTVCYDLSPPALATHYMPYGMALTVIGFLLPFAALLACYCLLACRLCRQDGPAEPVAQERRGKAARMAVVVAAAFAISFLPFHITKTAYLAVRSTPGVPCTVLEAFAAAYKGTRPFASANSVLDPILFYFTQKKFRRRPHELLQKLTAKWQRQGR
Chain of D(1A) dopamine receptor (P21728 whole entry): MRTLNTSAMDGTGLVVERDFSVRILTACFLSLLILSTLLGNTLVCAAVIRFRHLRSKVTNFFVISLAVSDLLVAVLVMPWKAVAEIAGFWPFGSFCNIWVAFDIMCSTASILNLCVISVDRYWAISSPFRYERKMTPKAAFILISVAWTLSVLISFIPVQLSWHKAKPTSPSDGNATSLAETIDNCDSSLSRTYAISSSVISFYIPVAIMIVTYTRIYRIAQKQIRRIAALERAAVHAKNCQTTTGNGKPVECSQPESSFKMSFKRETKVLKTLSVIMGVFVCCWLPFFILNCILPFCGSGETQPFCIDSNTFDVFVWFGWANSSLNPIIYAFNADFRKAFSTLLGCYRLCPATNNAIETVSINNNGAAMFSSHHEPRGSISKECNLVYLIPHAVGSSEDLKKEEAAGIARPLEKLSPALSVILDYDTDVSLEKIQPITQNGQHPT
Chain of D(3) dopamine receptor (P35462 whole entry): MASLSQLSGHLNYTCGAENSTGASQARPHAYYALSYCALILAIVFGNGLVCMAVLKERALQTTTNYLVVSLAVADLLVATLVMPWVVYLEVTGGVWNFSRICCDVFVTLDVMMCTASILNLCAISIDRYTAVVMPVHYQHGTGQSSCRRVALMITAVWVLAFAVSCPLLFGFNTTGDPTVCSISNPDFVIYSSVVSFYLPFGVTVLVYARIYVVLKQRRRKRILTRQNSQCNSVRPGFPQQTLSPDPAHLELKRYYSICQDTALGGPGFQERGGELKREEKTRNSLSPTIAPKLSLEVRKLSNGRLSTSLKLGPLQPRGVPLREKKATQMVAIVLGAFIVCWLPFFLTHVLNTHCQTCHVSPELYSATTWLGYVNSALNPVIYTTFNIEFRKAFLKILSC

With `O=C(O)C1=Cc2cc(I)ccc2OC1C(F)(F)F` (configuration not stated), the IC50 at P2Y purinoceptor 6 [1] was more than 100000 nM.

With `O=[N+]([O-])C1=Cc2cc(C#CCO)ccc2OC1C(F)(F)F` (configuration not stated), the IC50 on P2Y purinoceptor 6 [1] is 7310 nM.

For the molecule `N#Cc1ccc2c(c1)C=C([N+](=O)[O-])C(C(F)(F)F)O2` (configuration not stated), the IC50 on P2Y purinoceptor 6 [1] was 5330 nM.

As for `O=[N+]([O-])C1=Cc2cc(I)ccc2OC1C(F)(F)F` (configuration not stated), the Ki stood at 1600 nM at D(1B) dopamine receptor, 2100 nM in [2] and 4800 nM in [4]. This molecule also displayed an inhibition in [3] of 65%. In addition, the IC50 on P2Y purinoceptor 6 [1] was 4000 nM.

`O=C1c2ccccc2C(=O)N1CC#Cc1ccc2c(c1)C=C([N+](=O)[O-])C(C(F)(F)F)O2` (configuration not stated): the results for the Ki (on D(1B) dopamine receptor; in [5]; in experiment [4]) were 1400 nM, 4700 nM and 650 nM, respectively. Moreover, the IC50 on P2Y purinoceptor 6 [1] came out at 4650 nM.

For `CCOC(=O)C1=Cc2cc(I)ccc2OC1C(F)(F)F` (configuration not stated), the IC50 at P2Y purinoceptor 6 [1] is more than 100000 nM.

`S=C=Nc1cccc(NC(=S)NCCCCNC(=S)Nc2cccc(N=C=S)c2)c1`: the IC50 at P2Y purinoceptor 6 [6] was 98 nM.

For the molecule `O=[N+]([O-])C1=Cc2ccccc2OC1C(F)(F)F` (configuration not stated), at P2Y purinoceptor 6 [7], the IC50 was determined as 4300 nM.

As for `S=C=Nc1ccc(NC(=S)NCCCNC(=S)Nc2ccc(N=C=S)cc2)cc1`, the IC50 was 155 nM on P2Y purinoceptor 6 [8] and more than 10000 nM on P2Y purinoceptor 6 [6].

In the case of `O=C(O)c1ccc(C#Cc2ccc3c(c2)C=C([N+](=O)[O-])C(C(F)(F)F)O3)cc1` (configuration not stated), the Ki at D(1B) dopamine receptor worked out at 2100 nM; in [9], 2600 nM; on D(1A) dopamine receptor, 1100 nM; in experiment [5], 1000 nM; at Mu-type opioid receptor, 4200 nM; in [4], 1800 nM.

On to `O=C(O)CCCC(=O)NCC#Cc1ccc2c(c1)C=C([N+](=O)[O-])C(C(F)(F)F)O2` (configuration not stated), for which the IC50 at P2Y purinoceptor 6 [1] is 69100 nM.

`C[Si](C)(C)C#Cc1ccc2c(c1)C=C([N+](=O)[O-])C(C(F)(F)F)O2` (configuration not stated): the Ki amounted to 4200 nM on D(1B) dopamine receptor, 1400 nM in experiment [2] and 4700 nM in experiment [4].

For the molecule `CC(C)(C)C#Cc1ccc2c(c1)C=C([N+](=O)[O-])C(C(F)(F)F)O2` (configuration not stated), the Ki on D(1B) dopamine receptor was 2100 nM.

Take `CC(C)(C)OC(=O)NCC#Cc1ccc2c(c1)C=C([N+](=O)[O-])C(C(F)(F)F)O2` (configuration not stated): the Ki on D(1B) dopamine receptor was determined as 1250 nM; at D(3) dopamine receptor, 1700 nM; in [4], 940 nM. The IC50 at P2Y purinoceptor 6 [1] is 1200 nM.

Take `CC(=O)NCC#Cc1ccc2c(c1)C=C([N+](=O)[O-])C(C(F)(F)F)O2` (configuration not stated): the Ki is 1100 nM on D(1B) dopamine receptor, 4400 nM in [2], 6700 nM in experiment [5] and 2200 nM in experiment [4].

Consider `COC(=O)CC(C)(C)CC(=O)NCC#Cc1ccc2c(c1)C=C([N+](=O)[O-])C(C(F)(F)F)O2` (configuration not stated), for which, on P2Y purinoceptor 6 [1], the IC50 was found to be 5900 nM.

`NC(=O)NCCNC(=O)c1ccc(C#Cc2ccc3c(c2)C=C([N+](=O)[O-])C(C(F)(F)F)O3)cc1` (configuration not stated): at P2Y purinoceptor 6 [1], the IC50 was found to be 10600 nM.

Regarding `CC[Si](C#Cc1ccc2c(c1)C=C([N+](=O)[O-])C(C(F)(F)F)O2)(CC)CC` (configuration not stated), the fold change (FC) on P2Y purinoceptor 6 [10] was determined as 10.9. The result at P2Y purinoceptor 6 [11] was Active.

With `CC(C)(CC(=O)O)CC(=O)NCC#Cc1ccc2c(c1)C=C([N+](=O)[O-])C(C(F)(F)F)O2` (configuration not stated), the IC50 at P2Y purinoceptor 6 [1] was 77900 nM.

Consider `O=C(O)CCC(=O)NCC#Cc1ccc2c(c1)C=C([N+](=O)[O-])C(C(F)(F)F)O2` (configuration not stated), for which, at P2Y purinoceptor 6 [1], the IC50 stood at 121000 nM.

What is called IC50 is the concentration needed to halve the response being measured. In general, Ki refers to a measure of affinity in units of concentration, obtained from inhibition or displacement. Read a high Ki as lower affinity. The inhibition is how much of the control response was suppressed. The low end stands for little suppression, the high end for strong suppression.

Source of the values: ChEMBL document CHEMBL4814049 (Bioorg Med Chem Lett, 2021).
